Laboratory results taken from patent US20240174671A1, “New 2,3-Dihydro-1H-pyrrolo[3,2-b]pyridine Derivatives as Sigma Ligands” (ACONDICIONAMIENTO TARRASENSE, priority 2021, published 2024).
Read-outs that look alike come from different tables or passages of the source.

Columns and labels:
[1] = target: T1, human σ2/TMEM97 receptor (Homo sapiens, UniProt Q5BJF2); assay: Binding assay to human σ2/TMEM97 receptor ([3H]-DTG); conditions: transfected HEK-293 membranes, 10 nM [3H]-DTG, 25° C., 120 minutes; read-out: Binding σ-[…] (binding to σ2-receptor expressed as Ki)
T1 construct: expressed in transfected cells; host or cells: HEK-293
T1 sequence (Q5BJF2 whole entry): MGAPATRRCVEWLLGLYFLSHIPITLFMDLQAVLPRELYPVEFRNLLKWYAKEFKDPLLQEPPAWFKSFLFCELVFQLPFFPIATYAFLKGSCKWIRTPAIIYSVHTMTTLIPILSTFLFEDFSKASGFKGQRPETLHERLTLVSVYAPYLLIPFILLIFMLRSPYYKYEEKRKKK
Summary of the method: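 Membranes from transfected HEK-293 cells incubated with 10 nM [3H]-DTG in 50 mM Tris-HCl pH 8.0, 120 min at 25 °C; non-specific binding defined with 10 μM haloperidol. Bound radioactivity counted after filtration; compounds tested as % inhibition at 1 or 10 μM or at five concentrations for Ki.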

[2] = target: T2, human σ1 receptor (Homo sapiens, UniProt Q99720); assay: Human σ1 receptor radioligand assay ([3H](+)-pentazocine); format: binding
T2 construct: expressed in transfected cells; host or cells: HEK-293
T2 sequence (Q99720 whole entry): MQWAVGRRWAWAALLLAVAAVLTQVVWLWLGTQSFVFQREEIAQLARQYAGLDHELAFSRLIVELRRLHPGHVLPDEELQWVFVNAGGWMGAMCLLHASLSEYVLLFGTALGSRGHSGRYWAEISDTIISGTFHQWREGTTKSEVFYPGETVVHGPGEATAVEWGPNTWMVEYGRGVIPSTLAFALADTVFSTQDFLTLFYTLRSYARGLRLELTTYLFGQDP
Summary of the method: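 Binding used [3H](+)-pentazocine, 120 min at 37° C, with non-specific binding defined by 10 μM haloperidol. Bound radioligand was collected by filtration, washed with ice-cold 10 mM Tris-HCl pH 7.4 and counted by scintillation.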

[3] = transfected HEK-293 membranes, 5 nM [3H](+)-pentazocine, 37° C., 120 minutes, read-out: Binding σ-[…] (binding to σ1-receptor expressed as Ki)

Row | Ki [1] [µM] | Ki [2, 3] [µM] | Structure (SMILES) | Ki [2] [µM]
1 | 0.1 to 0.5 | 0.1 to 0.5 | CC(C)CCN[C@H]1CCCCN(C(=O)N2CCc3ncccc32)C1 [Example 121, (S)-(2,3-dihydro-1H-pyrrolo[3,2-b]pyridin-1-yl)(3-(isopentylamino)azepan-1-yl)methanone] | –
2 | < 0.1 | 0.5 to 1 | Cc1ccc2c(n1)C(C)(C)CN2C(=O)N1CCC2(CCN(CCC(C)C)CC2)C1 [Example 100, (8-isopentyl-2,8-diazaspiro[4.5]decan-2-yl)(3,3,5-trimethyl-2,3-dihydro-1H-pyrrolo[3,2-b]pyridin-1-yl)methanone] | –
3 | < 0.1 | < 0.1 | CC1(C)CN(C(=O)N2CCC3(CCN(Cc4cc(C#N)c(F)cc4F)CC3)C2)c2cccnc21 [Example 158, 5-((2-(3,3-dimethyl-2,3-dihydro-1H-pyrrolo[3,2-b]pyridine-1-carbonyl)-2,8-diazaspiro[4.5]decan-8-yl)methyl)-2,4-difluorobenzonitrile] | –
4 | 0.1 to 0.5 | 0.1 to 0.5 | Cc1ccc2c(n1)C(C)(C)CN2C(=O)[C@H]1C[C@@H](NCc2ccccc2)C1 [Example 136, ((1s,3s)-3-(benzylamino)cyclobutyl)(3,3,5-trimethyl-2,3-dihydro-1H-pyrrolo[3,2-b]pyridin-1-yl)methanone] | –
5 | < 0.1 | 0.1 to 0.5 | Cc1ccc2c(n1)C(C)(C)CN2C(=O)[C@H]1CC[C@H](N(C)CC2CCOCC2)CC1 [Example 185, ((1r,4r)-4-(methyl((tetrahydro-2H-pyran-4-yl)methyl)amino)cyclohexyl)(3,3,5-trimethyl-2,3-dihydro-1H-pyrrolo[3,2-b]pyridin-1-yl)methanone] | –
6 | < 0.1 | > 1 | CN(Cc1ccc(F)c(C#N)c1)C1CCN(C(=O)N2CC(C)(C)c3ncccc32)CC1 [Example 45, 5-(((1-(3,3-dimethyl-2,3-dihydro-1H-pyrrolo[3,2-b]pyridine-1-carbonyl)piperidin-4-yl)(methyl)amino)methyl)-2-fluorobenzonitrile] | –
7 | > 1 | < 0.1 | Cc1ccc2c(n1)C(C)(C)CN2C(=O)C1CN(Cc2ccc(F)cc2)C1 [Example 133, (1-(4-fluorobenzyl)azetidin-3-yl)(3,3,5-trimethyl-2,3-dihydro-1H-pyrrolo[3,2-b]pyridin-1-yl)methanone] | –
8 | < 0.1 | < 0.1 | CC1(C)CN(C(=O)N2CCC3(CCN(Cc4ccccc4F)CC3)CC2)c2cccnc21 [Example 145, (3,3-dimethyl-2,3-dihydro-1H-pyrrolo[3,2-b]pyridin-1-yl)(9-(2-fluorobenzyl)-3,9-diazaspiro[5.5]undecan-3-yl)methanone] | –
9 | > 1 | < 0.1 | Cc1ccc2c(n1)C(C)(C)CN2C(=O)NC1CCN(Cc2ccccc2)CC1 [Example 1, N-(1-benzylpiperidin-4-yl)-3,3,5-trimethyl-2,3-dihydro-1H-pyrrolo[3,2-b]pyridine-1-carboxamide] | –
10 | 0.1 to 0.5 | < 0.1 | Cc1ccc2c(n1)C(C)(C)CN2C(=O)[C@H]1C[C@H](N(C)Cc2ccccc2)C1 [Example 137, ((1r,3r)-3-(Benzyl(methyl)amino)cyclobutyl)(3,3,5-trimethyl-2,3-dihydro-1H-pyrrolo[3,2-b]pyridin-1-yl)methanone] | –
11 | < 0.1 | < 0.1 | CC1(C)CN(C(=O)N2CCC3(CCN(Cc4ccccc4F)CC3)C2)c2cccnc21 [Example 141, (3,3-dimethyl-2,3-dihydro-1H-pyrrolo[3,2-b]pyridin-1-yl)(8-(2-fluorobenzyl)-2,8-diazaspiro[4.5]decan-2-yl)methanone] | –
12 | < 0.1 | 0.1 to 0.5 | CC1(C)CN(C(=O)N2CCC3(CCN(Cc4ccc(F)c(C#N)c4)CC3)C2)c2cccnc21 [Example 143, 5-((2-(3,3-dimethyl-2,3-dihydro-1H-pyrrolo[3,2-b]pyridine-1-carbonyl)-2,8-diazaspiro[4.5]decan-8-yl)methyl)-2-fluorobenzonitrile] | –
13 | 0.1 to 0.5 | 0.1 to 0.5 | Cc1ccc2c(n1)C(C)(C)CN2C(=O)N1CCC2(CCN(Cc3ccc(F)c(C#N)c3)CC2)CC1 [Example 162, 2-fluoro-5-((9-(3,3,5-trimethyl-2,3-dihydro-1H-pyrrolo[3,2-b]pyridine-1-carbonyl)-3,9-diazaspiro[5.5]undecan-3-yl)methyl)benzonitrile] | –
14 | < 0.1 | < 0.1 | CC1(C)CN(C(=O)N2CCC3(CCN(Cc4cc(F)ccc4F)CC3)CC2)c2cccnc21 [Example 164, (9-(2,5-difluorobenzyl)-3,9-diazaspiro[5.5]undecan-3-yl)(3,3-dimethyl-2,3-dihydro-1H-pyrrolo[3,2-b]pyridin-1-yl)methanone] | –
15 | 0.5 to 1 | < 0.1 | Cc1ccc2c(n1)C(C)(C)CN2C(=O)C1CN(Cc2cccc(F)c2)C1 [Example 135, (1-(3-fluorobenzyl)azetidin-3-yl)(3,3,5-trimethyl-2,3-dihydro-1H-pyrrolo[3,2-b]pyridin-1-yl)methanone] | –
16 | < 0.1 | < 0.1 | Cc1ccc2c(n1)C(C)(C)CN2C(=O)[C@H]1CC[C@H](N(C)Cc2cc(F)ccc2F)CC1 [Example 173, ((1r,4r)-4-((2,5-difluorobenzyl)(methyl)amino)cyclohexyl)(3,3,5-trimethyl-2,3-dihydro-1H-pyrrolo[3,2-b]pyridin-1-yl)methanone] | –
17 | < 0.1 | 0.5 to 1 | Cc1ccc2c(n1)C(C)(C)CN2C(=O)N1CCC(N(C)Cc2cccc(F)c2)CC1 [Example 116, (4-((3-fluorobenzyl)(methyl)amino)piperidin-1-yl)(3,3,5-trimethyl-2,3-dihydro-1H-pyrrolo[3,2-b]pyridin-1-yl)methanone] | –
18 | < 0.1 | 0.1 to 0.5 | Cc1ccc2c(n1)C(C)(C)CN2C(=O)N1CCC(N(C)CCc2ccccc2)CC1 [Example 50, (4-(methyl(phenethyl)amino)piperidin-1-yl)(3,3,5-trimethyl-2,3-dihydro-1H-pyrrolo[3,2-b]pyridin-1-yl)methanone] | –
19 | 0.1 to 0.5 | < 0.1 | CC1(C)CN(C(=O)C2CN(Cc3ccccc3)C2)c2cccnc21 [Example 132, (1-benzylazetidin-3-yl)(3,3-dimethyl-2,3-dihydro-1H-pyrrolo[3,2-b]pyridin-1-yl)methanone] | –
20 | < 0.1 | 0.5 to 1 | Cc1ccc2c(n1)C(C)(C)CN2C(=O)N1CCCCC(NCCC(C)C)C1 (stereo not drawn) [Example 120, (3-(Isopentylamino)azepan-1-yl)(3,3,5-trimethyl-2,3-dihydro-1H-pyrrolo[3,2-t]pyridin-1-yl)methanone] | –
21 | 0.1 to 0.5 | < 0.1 | CN(Cc1ccccc1)C1CCN(C(=O)N2CCc3ncccc32)CC1 [Example 51, (4-(benzyl(methyl)amino)piperidin-1-yl)(2,3-dihydro-1H-pyrrolo[3,2-b]pyridin-1-yl)methanone] | –
22 | > 1 | 0.1 to 0.5 | Cc1ccc2c(n1)C(C)(C)CN2C(=O)NC1CCN(CC2CCOCC2)CC1 [Example 42, 3,3,5-trimethyl-N-(1-((tetrahydro-2H-pyran-4-yl)methyl)piperidin-4-yl)-2,3-dihydro-1H-pyrrolo[3,2-b]pyridine-1-carboxamide] | –
23 | > 1 | < 0.1 | CN(C)[C@@H](CNC(=O)N1CC(C)(C)c2ncc(F)cc21)c1ccccc1 [Example 20, (R)—N-(2-(dimethylamino)-2-phenylethyl)-6-fluoro-3,3-dimethyl-2,3-dihydro-1H-pyrrolo[3,2-b]pyridine-1-carboxamide] | –
24 | > 1 | 0.1 to 0.5 | CN(C)[C@@H](CNC(=O)N1CC(C)(C)c2ncc(Cl)cc21)c1ccccc1 [Example 14, (R)-6-chloro-N-(2-(dimethylamino)-2-phenylethyl)-3,3-dimethyl-2,3-dihydro-1H-pyrrolo[3,2-b]pyridine-1-carboxamide] | –
25 | 0.1 to 0.5 | < 0.1 | Cc1ccc2c(n1)C(C)(C)CN2C(=O)NC1CCN(Cc2cccc(Cl)c2)CC1 [Example 55, N-(1-(3-chlorobenzyl)piperidin-4-yl)-3,3,5-trimethyl-2,3-dihydro-1H-pyrrolo[3,2-b]pyridine-1-carboxamide] | –
26 | < 0.1 | 0.1 to 0.5 | Cc1ccc2c(n1)C(C)(C)CN2C(=O)N1CCC(N(C)Cc2ccccc2)CC1 [Example 11, (4-(benzyl(methyl)amino)piperidin-1-yl)(3,3,5-trimethyl-2,3-dihydro-1H-pyrrolo[3,2-b]pyridin-1-yl)methanone] | –

Row | Structure (SMILES) | Ki [1] [µM] | Ki [2, 3] [µM] | Ki [2] [µM]
27 | Cc1ccc2c(n1)C(C)(C)CN2C(=O)NC1CCN(CCc2ccccc2)CC1 [Example 27, 3,3,5-trimethyl-N-(1-phenethylpiperidin-4-yl)-2,3-dihydro-1H-pyrrolo[3,2-b]pyridine-1-carboxamide] | < 0.1 | – | 0.1 to 0.5
28 | CCN[C@@H](CNC(=O)N1CC(C)(C)c2nc(C)ccc21)c1ccccc1 [Example 113, (R)—N-(2-(ethylamino)-2-phenylethyl)-3,3,5-trimethyl-2,3-dihydro-1H-pyrrolo[3,2-b]pyridine-1-carboxamide] | > 1 | – | 0.1 to 0.5
29 | Cc1ccc2c(n1)C(C)(C)CN2C(=O)NCC(c1ccccc1)N(C)C (stereo not drawn) [Example 2, N-(2-(dimethylamino)-2-phenylethyl)-3,3,5-trimethyl-2,3-dihydro-1H-pyrrolo[3,2-b]pyridine-1-carboxamide] | > 1 | – | < 0.1
30 | Cc1ccc2c(n1)C(C)(C)CN2C(=O)NC[C@H](Cc1ccccc1)N(C)C [Example 12, (S)—N-(2-(dimethylamino)-3-phenylpropyl)-3,3,5-trimethyl-2,3-dihydro-1H-pyrrolo[3,2-b]pyridine-1-carboxamide] | > 1 | – | < 0.1
